According to article PMC2680759, “Non-Invasive Molecular Imaging of Fibrosis Using a Collagen-Targeted Peptidomimetic of the Platelet Collagen Receptor Glycoprotein VI” (PLoS ONE, 2009):
Bridges are numbered along the chain shown (N, C = ends). Where no end group is shown, it is not given here.

What was measured:
[1] = tested on: 9O12.2 IgG; assay: SPR, 9O12.2 IgG injected over immobilized B-collagelin; assay type: binding; settings: SPR, peptide reduced by DTT on the sensorchip, IgG 8 µg/ml
Procedure: 9O12.2 IgG was injected over biotin-peptides coupled to an SA-sensorchip in a Biacore 2000 instrument. […] In some experiments, the peptide was reduced by DTT on the sensor chip before the IgG was injected. Competition experiments were performed by mixing the IgG with recombinant soluble GPVI (25 µg.mL^−1). Collagen binding to the peptide was analyzed by injecting type-I collagen (200 µg.mL^−1) onto the peptide-coated sensorchip. Conversely, biotin-peptides (125, 250, 500 and 1000 µg.mL^−1) were perfused over fibrillar collagen immobilized on a CM5-sensorchip.

[2] = target: T1, type III collagen (Homo sapiens, UniProt P02461); assay: Solid phase assay, type III collagen; assay type: binding; settings: biotin-peptide 50 µg/mL, microtitration plate, n = 3
T1 sequence (P02461 154-1221 limits assumed): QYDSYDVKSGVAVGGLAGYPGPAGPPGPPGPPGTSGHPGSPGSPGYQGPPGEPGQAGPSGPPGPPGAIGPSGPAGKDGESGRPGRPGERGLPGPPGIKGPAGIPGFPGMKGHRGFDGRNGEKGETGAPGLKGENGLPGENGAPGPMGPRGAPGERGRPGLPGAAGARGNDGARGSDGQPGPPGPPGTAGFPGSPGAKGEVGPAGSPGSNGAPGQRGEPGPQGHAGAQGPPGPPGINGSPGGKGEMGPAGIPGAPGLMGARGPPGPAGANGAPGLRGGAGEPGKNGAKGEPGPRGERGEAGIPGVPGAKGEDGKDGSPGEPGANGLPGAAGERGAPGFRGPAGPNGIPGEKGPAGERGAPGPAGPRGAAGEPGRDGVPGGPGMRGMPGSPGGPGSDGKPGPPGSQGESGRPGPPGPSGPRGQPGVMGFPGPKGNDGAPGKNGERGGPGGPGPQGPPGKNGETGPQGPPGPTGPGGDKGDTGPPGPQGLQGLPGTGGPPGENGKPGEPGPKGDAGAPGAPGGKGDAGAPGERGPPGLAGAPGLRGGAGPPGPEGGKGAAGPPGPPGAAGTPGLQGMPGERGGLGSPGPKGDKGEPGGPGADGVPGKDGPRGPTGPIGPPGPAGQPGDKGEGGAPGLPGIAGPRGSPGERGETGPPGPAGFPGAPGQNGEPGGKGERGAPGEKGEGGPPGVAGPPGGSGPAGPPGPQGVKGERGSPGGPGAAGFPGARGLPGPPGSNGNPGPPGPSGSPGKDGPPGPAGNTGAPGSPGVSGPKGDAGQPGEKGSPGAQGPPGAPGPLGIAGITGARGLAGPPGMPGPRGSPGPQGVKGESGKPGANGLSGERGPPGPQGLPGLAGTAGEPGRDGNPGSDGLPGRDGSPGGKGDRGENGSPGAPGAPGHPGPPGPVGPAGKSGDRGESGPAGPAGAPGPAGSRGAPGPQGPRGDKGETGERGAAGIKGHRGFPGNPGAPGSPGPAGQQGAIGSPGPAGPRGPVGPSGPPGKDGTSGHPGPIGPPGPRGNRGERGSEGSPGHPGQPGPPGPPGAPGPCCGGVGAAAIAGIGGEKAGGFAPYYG

[3] = tested on: fibrotic myocardial infarction scar; assay type: in vivo, rat; settings: rat, in vivo
Procedure: Myocardial infarction of the left ventricle was induced in rats as follows. Male Wistar rats (CERJ, France) were housed in a controlled environment and fed with a standard rat chow. Myocardial infarction of the left ventricle was induced by ligature of the left descending coronary artery performed under general anesthesia [1 mL.kg^−1 i.p. ketamine (Imalgene 500, Merial) and 0.5 mL.kg^−1 i.p. xylazine (Rompun, Bayer)] and positive pressure ventilation, as described. This protocol was performed under a permit from the French Veterinary Services Directorate.
Two types of control animals were used: healthy rats, and healthy rats which had undergone a simple throracotomy (sham-operated). ^99mTc-biotin-collagelin blood kinetics and biodistribution were investigated by counting blood samples (taken from a jugular catheter) for 6 h after i.v. injection, and organs (extracted after sacrifice) 2 h after injection in a gamma-counter, together with aliquots of the injected preparation (CobraII, Packard, Meriden, USA). Ex vivo myocardial labeling and isotopic imaging were performed 4 weeks after the coronary ligature (or throracotomy), when the lesions had had the time to heal.
For in vivo experiments, radiotracers (70 MBq) were administered i.v. to anesthetized animals (pentobarbital i.p. 6 mg/100 g BW, Ceva Santé Animale, France) within 2 h of radiolabeling. Scintigraphic images were obtained 0–2 h, 4 h, 6 h, 10 h and 24 h after injecting ^99mTc-streptavidin-biotin peptides and 0–3 h after injecting ^99mTc-biotinylated peptides. Planar and tomographic 1-h acquisitions were performed using a dedicated small animal γIMAGER system (Biospace Lab, Paris, France) equipped with 2 parallel low-energy high-resolution collimators (matrix 128×128, 15% energy window centered on 140 KeV). Tracer uptake in the left cardiac area was assessed visually. Two regions of interest were drawn on the scintigrams, over the heart and over the right lung. The mean activity (cpm) per pixel was determined in each region of interest. Then heart-to-lung activity ratios (HLR) were calculated on both planar and transversal tomographic images.

[4] = tested on: platelet function; assay: Effect on platelet function; settings: stated in discussion, no method given
[5] = tested on: collagen in sections of rat aorta and tail tendon; assay: Histochemical analysis of rat aorta and tail tendon sections; settings: frozen sections of rat aorta and tail tendon, biotin-peptide 200 µg/mL, HRP-coupled streptavidin
Procedure: Sections were counter-stained with hematoxylin-eosin (Merck). Collagen was stained using picrosirius red. Sections ([…]) of rat tail tendon were processed as above.

[6] = tested on: collagen fibers of the infarct scars; assay: Post mortem autoradiography of frozen myocardial sections; assay type: in vivo, rat; settings: 99mTc-streptavidin-coupled peptides
Procedure: After sacrificing the animals, the heart was removed and frozen, then 20-micrometer thick myocardial sections were cut perpendicular to the short axis of the ventricles in a cryostat, and exposed in a radioimager for 16 h. According to calibration studies performed with activity standards of tissue-equivalent homogenates, 50 counts/mm^2 of ^99m Tc-labeled tracers corresponded to ∼210 kBq/mg in autoradiography. The myocardial sections used for autoradiography, and contiguous heart sections (5 µm) fixed in acetone (−20°C), were stained with hematoxylin-eosin, Masson's trichrome and picrosirius red to determine the location and extent of the fibrotic myocardial scarring.

Row | Binding of 9O12.2 IgG to reduced collagelin [1] | Binding to immobilized type III collagen [2] | Compound | Accumulation of the tracer in the skin of the animals [3] | Uptake in bone marrow [3] | Effect on platelet function [4] | Histochemical staining of tissue collagen [5] | Autoradiographic labeling of the infarct scar ([6]; frozen myocardium sections 6-8 hours after injection) | Mean infarct-to-remote myocardium radioactivity ratio ([6]; rats with MI, mean±SEM, p<0.006)
1 | did not bind | bound | CSCC[C@@H]1NC(=O)[C@H](C(C)C)NC(=O)[C@H](CCCNC(=N)N)NC(=O)CNC(=O)[C@@H]2CCCN2C(=O)[C@@H](NC(=O)CNC(=O)[C@H](CO)NC(=O)CNC(=O)[C@H](CO)NC(=O)CCCC[C@@H]2SC[C@@H]3NC(=O)N[C@@H]32)CSSC[C@@H](C(N)=O)NC(=O)[C@@H]2CCCN2C(=O)CNC(=O)[C@H](CCC(=O)O)NC(=O)[C@H](CC(=O)O)NC(=O)[C@H](CC(=O)O)NC(=O)CNC(=O)[C@H](CC(C)C)NC(=O)[C@H](Cc2c[nH]cn2)NC(=O)[C@H](CC(C)C)NC(=O)CNC(=O)[C@H](Cc2c[nH]cn2)NC1=O [collagelin] | did not notice any accumulation | low level | no effect | – | – | –
2 | – | did not bind | SGSGCGPQGARGLTGASAGGPC (disulfide 5-22 (inferred)) [reference compound] | – | – | – | not | little or no uptake | 1.82±0.32
